The values below come from US10512626B2, “Compositions for use in treating glioblastoma” (PELOTON THERAPEUTICS, INC., priority 2015, dated 2019).

One assay deals with 786-O-Hif-Luc cells (luciferase gene driven by multiple HIF responsive elements). The assay can be described thus: Luciferase Assay (HIF reporter). To be noted: 24 h, read-out: Mean Luciferase EC50 (nM).
Description: A pool of infected cells were then selected against 2 μg/mL of puromycin (P8833, Sigma) for 10 days followed by limited dilution to select single clones.
Each concentration was tested in triplicate. After about 24 hours, luciferase activity was determined using ONE-Glo Luciferase Assay Reagent (E6110, Promega) following the manufacturer's recommended procedure. EC50 were calculated using Dotmatics software.
Consider `N#Cc1cc(F)cc(Oc2ccc(S(N)(=O)=O)c3c2CC(F)(F)[C@H]3O)c1` [Compound 252], for which the EC50 fell in the range of 50 to 249 nM.

For the compound `CS(=O)(=O)c1ccc(Oc2cc(F)cc(C#N)c2)c2c1C(O)C(F)C2` (stereo not shown) [Compound 232], the EC50 was below 50 nM.

With `[2H][C@]1(O)c2c(S(C)(=O)=O)ccc(Oc3cc(F)cc(C#N)c3)c2CC1(F)F` [Compound 247], the EC50 is below 50 nM.

With `N#Cc1cc(F)cc(Oc2ccc(S(N)(=O)=O)c3c2[C@@H](F)C(F)(F)[C@H]3O)c1` [Compound 338], the half-maximal effective concentration (EC50) was below 50 nM.

`CS(=O)(=O)c1ccc(Oc2cc(F)cc(C#N)c2)c2c1C(O)C(F)(F)C2` (stereo not shown) [Compound 223]: the EC50 lay within 50 to 249 nM.

On to `N#Cc1cc(Cl)cc(Oc2ccc(S(=O)(=O)CF)c3c2CC(F)(F)[C@H]3O)c1` [Compound 167], for which the 50% effective concentration (EC50) was below 50 nM.

For the compound `CS(=O)(=O)c1ccc(Oc2cc(F)cc(C#N)c2)c2c1[C@H](O)[C@H](F)[C@@H]2F` [Compound 289, 3-[(1S,2S,3R)-2,3-difluoro-1-hydroxy-7-methylsulfonyl-indan-4-yl]oxy-5-fluoro-benzonitrile], the 50% effective concentration (EC50) is below 50 nM.

Consider `CNS(=O)(=O)c1ccc(Oc2cc(F)cc(F)c2)c2c1[C@H](O)C(F)(F)C2` [Compound 251], for which the concentration giving a half-maximal response (EC50) lay in the range of 50 to 249 nM.

Take `CS(=O)(=O)c1ccc(Oc2cc(F)cc(C#N)c2)c2c1[C@H](O)C(F)(F)C2` [Compound 163, (S)-3-((2,2-Difluoro-1-hydroxy-7-(methylsulfonyl)-2,3-dihydro-1H-inden-4-yl)oxy)-5-fluorobenzonitrile]: the EC50 was below 50 nM.

Regarding `O=S(=O)(c1ccc(Oc2cc(F)cc(Cl)c2)c(Cl)c1CO)C(F)F` [Compound 41], the EC50 was 250 to 1000 nM.

Consider `CCS(=O)(=O)c1ccc(Oc2cc(F)cc(C#N)c2)c2c1[C@H](O)C(F)(F)C2` [Compound 206], for which the concentration for a half-maximal effect (EC50) is 50 to 249 nM.

Regarding `N#Cc1cc(F)cc(Oc2ccc(S(=O)(=O)C(F)(F)F)c3c2CC[C@H]3O)c1` [Compound 57], the 50% effective concentration (EC50) was in the range of 50 to 249 nM.

Regarding `[2H]C([2H])([2H])S(=O)(=O)c1ccc(Oc2cc(F)cc(C#N)c2)c2c1[C@]([2H])(O)C(F)(F)C2` [Compound 229], the half-maximal effective concentration (EC50) was below 50 nM.

As for `NS(=O)(=O)c1ccc(Oc2cc(F)cc(F)c2)c2c1[C@H](O)C(F)(F)C2` [Compound 256], the EC50 is below 50 nM.

In the case of `N#Cc1cc(F)cc(Oc2ccc(S(N)(=O)=O)c3c2[C@H](F)C(F)(F)[C@H]3O)c1` [Compound 339], the 50% effective concentration (EC50) was in the range of 250 to 1000 nM.

`CS(=O)(=O)c1ccc(Oc2cc(F)cc(C#N)c2)c2c1[C@H](O)[C@@H](F)C2` [Compound 271]: the EC50 lay within 250 to 1000 nM.

`N#Cc1cc(F)cc(Oc2ccc(S(=O)(=O)C(F)(F)F)c3c2CC(F)(F)[C@H]3N)c1` [Compound 290]: the concentration giving a half-maximal response (EC50) lay in the range of 50 to 249 nM.

For the compound `N#Cc1cc(F)cc(Oc2ccc(S(=O)(=O)C(F)F)c3c2CC[C@H]3O)c1` [Compound 155], the EC50 was in the range of 50 to 249 nM.

Turning to `CS(=O)(=O)c1ccc(Oc2cc(F)cc(C#N)c2)c2c1[C@H](N)C(F)(F)C2` [Compound 165], the concentration for a half-maximal effect (EC50) was in the range of 50 to 249 nM.

Consider `C[C@H]1C[C@@H](O)c2c(S(=O)(=O)C(F)F)ccc(Oc3cc(F)cc(Cl)c3)c21` [Compound 7a], for which the EC50 was in the range of 250 to 1000 nM.

Regarding `N#Cc1cncc(Oc2ccc(S(=O)(=O)C(F)(F)F)c3c2CC(F)(F)[C@H]3O)c1` [Compound 235], the EC50 is below 50 nM.

In the case of `N#Cc1cccc(Oc2ccc(S(=O)(=O)C(F)F)c3c2CC[C@H]3O)c1` [Compound 156], the EC50 was in the range of 250 to 1000 nM.

Consider `O=S(=O)(c1ccc(Oc2cc(F)cc(Cl)c2)c(C(F)F)c1)C(F)(F)F` [Compound 124], for which the concentration giving a half-maximal response (EC50) lay within 250 to 1000 nM.

In the case of `CS(=O)(=O)c1ccc(Oc2cc(Cl)cc(C#N)c2)c2c1[C@H](O)C(F)(F)C2` [Compound 234], the EC50 is below 50 nM.

Regarding `CS(=O)(=O)c1ccc(Oc2cc(F)cc(C#N)c2)c2c1[C@H](O)[C@H](F)C2` [Compound 231], the 50% effective concentration (EC50) was below 50 nM.

Take `CS(=O)(=O)c1ccc(Oc2cc(F)cc(C#N)c2)c2c1[C@@H](O)C(F)(F)C2` [Compound 226]: the EC50 is above 1000 nM.

As to `CNS(=O)(=O)c1ccc(Oc2cc(F)cc(C#N)c2)c2c1[C@H](O)C(F)(F)C2` [Compound 254], the concentration for a half-maximal effect (EC50) was in the range of 50 to 249 nM.

Staying with this assay, now noted: 24 h, read-out: Mean Luciferase EC50 (nM), 786-O-Hif-Luc cells, about 24 hours.
With `CS(=O)(=O)c1ccc(OC2CC(C#N)C2)c2c1[C@H](O)C(F)(F)[C@@H]2F` (stereo partly shown) [Compound 760], the EC50 fell in the range of 50 to 249 nM.

As for `O=S(=O)(c1ccc(O[C@H]2C[C@H](O)C2)c2c1[C@H](O)C(F)(F)C2)C(F)(F)F` [Compound 644], the concentration giving a half-maximal response (EC50) fell in the range of 250 to 1000 nM.

In the case of `FC(F)COc1ccc(C(F)(F)F)c2c1C[C@H](F)[C@H]2F` [Compound 697], the EC50 was 50 to 249 nM.

The subject of a further assay is VEGF concentration in culture medium of 786-O cells. The assay can be described thus: VEGF ELISA Assay. The note with it: Homo sapiens, 786-0. The class given is cell-based. As for the experimental part: Each concentration was plated in duplicate. About 20 hours later, medium was removed by suction and each well was supplied with 180 μL of growth medium. About 20 µl freshly-made 10× compound stocks were added to each well. […] The EC50 was calculated by GraphPad Prism using the dose-response-inhibition (four parameter) equation. The cell-seeded plate was then subjected to CellTiter-Glo luminescence cell viability assay (Promega) by adding 50 μL of Celltiter Glo reagent into each well and shaking the plate for 8 minutes at 550 rpm (Thermomixer R, Eppendorf) then the luminescence signal immediately read in a plate reader (3 second delay, 0.5 second/well integration time, Synergy 2 multi Detection Microplate reader).
On to `O=S(=O)(c1ccc(Oc2cc(F)cc(Cl)c2)c(Cl)c1CO)C(F)F` [Compound 41], for which the 50% effective concentration (EC50) was 0.25 to 1 µM.

With `N#Cc1ccc(Oc2cc(F)cc(F)c2)c2c1[C@H](O)C(F)(F)C2` [Compound 67], the concentration giving a half-maximal response (EC50) lay within 0.05 to 0.249 µM.

On to `O=S(=O)(c1ccc(Oc2cc(F)cc(Cl)c2)c2c1C(O)CC2)C(F)F` (stereo not shown) [Compound 17], for which the 50% effective concentration (EC50) fell in the range of 0.05 to 0.249 µM.

Take `CS(=O)(=O)c1ccc(OC2CC(C#N)C2)c2c1[C@H](O)C(F)(F)[C@@H]2F` (stereo partly shown) [Compound 760]: the half-maximal effective concentration (EC50) lay within 0.05 to 0.249 µM.

As for `N#Cc1cc(F)cc(Oc2ccc(S(=O)(=O)C(F)F)c3c2CC[C@H]3O)c1` [Compound 155], the EC50 fell in the range of 0.05 to 0.249 µM.

As to `N#Cc1cc(F)cc(Oc2ccc(S(=O)(=O)C(F)F)c3c2CCC3O)c1` (stereo not shown) [Compound 78], the concentration giving a half-maximal response (EC50) fell in the range of 0.25 to 1 µM.

`O=S(=O)(c1ccc(Oc2cc(F)cc(Cl)c2)c(C(F)F)c1)C(F)(F)F` [Compound 124]: the EC50 was 0.25 to 1 µM.

As to `CS(=O)(=O)c1ccc(Oc2cc(Cl)cc(C#N)c2)c2c1[C@H](O)C(F)(F)C2` [Compound 234], the 50% effective concentration (EC50) is 0.05 to 0.249 µM.

`O=S(=O)(c1ccc(Oc2cc(F)cc(Cl)c2)c2c1[C@H](O)CC2)C(F)F` [Compound 1]: the 50% effective concentration (EC50) was in the range of 0.25 to 1 µM.

A further assay deals with T1, HIF-2α HIS TAG-PASB Domain (Homo sapiens, UniProt Q99814).
T1 construct: 100 nM HIF-2α HIS TAG-PASB Domain
T1 sequence (Q99814 240-350 limits assumed): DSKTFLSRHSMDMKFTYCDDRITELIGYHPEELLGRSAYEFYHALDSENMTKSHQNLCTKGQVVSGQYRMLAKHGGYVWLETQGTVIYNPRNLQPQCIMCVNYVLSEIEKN
The assay can be described thus: HIF-2α Scintillation Proximity Assay (SPA). In kind it is binding. To be noted: displacement of tritiated probe Compound 183. How it is done: The total assay volume was about 100 μL in the following configuration: 2 μL compound in 100% DMSO, 88 μL buffer with protein and probe and 10 μL of SPA beads. […] The percent inhibition was determined and IC50 values were calculated using the Dotmatics system based on the following equation: % inhibition=[(high control−sample)/(high control−low control)]×100.
For the compound `CS(=O)(=O)c1ccc(Nc2cc(F)cc(C#N)c2)c2c1[C@H](O)C(F)(F)C2` [Compound 502], the IC50 was above 1 µM.

Turning to `O=S(=O)(c1ccc(O[C@H]2C[C@H](O)C2)c2c1[C@H](O)C(F)(F)C2)C(F)(F)F` [Compound 644], the IC50 was in the range of 0.25 to 1 µM.

In turn, `FC(F)COc1ccc(C(F)(F)F)c2c1C[C@H](F)[C@H]2F` [Compound 697] yielded an IC50 of 0.05 to 0.249 µM.

Regarding `CS(=O)(=O)c1ccc(O[C@H]2C[C@H](C#N)C2)c2c1[C@H](O)C(F)(F)[C@@H]2F` [Compound 760], the IC50 is below 0.05 µM.
